In patent US8268827B2, “Pyridazinone derivatives as PARP inhibitors” (Istituto di Ricerche di Biologia Molecolare P. Angeletti …, priority 2007, dated 2012):
Counter-ions that a name gives are not always drawn.

These molecules were tested on BRCA-1 silenced HeLa cells (HeLa shBRCA1-GFP) (assay: Proliferation assay in BRCA-1 silenced HeLa cells). Conditions: Homo sapiens; BRCA1 silenced HeLa cells, 168 hours; read-out: CC50 in the BRCA1 silenced HeLa cells.
Type: cell-based
Procedure: Proliferation Assay in BRCA-1 Silenced HeLa Cells
Compounds of the present invention were also tested in an anti-proliferative assay in matched pair BRCA1 wt and BRCA1-(shRNA) HeLa cells.
The assay is based on the ability of living cells to convert a redox dye (resazurin) into a fluorescent end product (resofurin). The amount of resofurin produced is directly proportional to the cell number.
HeLa shBRCA1-GFP—These are HeLa cells transduced at an MOI of 100 with a Lentivirus containing a shRNA against BRCA-1 and an expression cassette for GFP. BRCA-1 silencing is more than 80% as assessed by Taqman analysis and the cells stably express GFP.
HeLa THM-GFP—These are HeLa cells transduced at an MOI of 100 with a control vector not expressing any shRNA.
• Seed 300 cell/well in 96 wells viewplate black in 90 ul culture Medium*: • Incubate 4 hours at 37° C., 5% CO2 • Add 10 ul/well of 10× compound (5% DMSO in H2O) • Incubate for 168 hours at 37° C., 5% CO2 • Add 10 ul of Celltiter Blue solution (Promega, G8081) pre-diluted 1:1 in PBS1× • Incubate the mixture for 45′ at 37° C., 5% CO2 • Incubate 15′ at RT in the dark • Read plate at fluorimeter ex: 550 nm; em: 590 nm *Culture Medium: DMEM (GIBCO, 41966-029), 10% FCS (GIBCO, 10106-169), 0.1 mg/ml Penicillin-Streptomycin (GIBCO, 15140-114), 2 mM L-Glutamine (GIBCO, 3042190)
Cc1c(Cc2ccc(F)c(C(=O)N3CCN(c4ccc(F)c(F)c4)C(=O)C3)c2)n[nH]c(=O)c1C(F)(F)F [Example 26, 3-(3-{[4-(3,4-Difluorophenyl)-3-oxopiperazin-1-yl]carbonyl}-4-fluorobenzyl)-4-methyl-6-oxo-5-(trifluoromethyl)-1,6-dihydropyridazin-1-ium trifluoroacetate] was tested, and the CC50 was less than 50 nM. With O=C(c1cc(Cc2cc(C(F)(F)F)c(=O)[nH]n2)ccc1F)N1CCN(C2CCCCC2)C(=O)C1 [Example 27, 6-{3-[(4-Cyclohexyl-3-oxopiperazin-1-yl)carbonyl]-4-fluorobenzyl}-3-oxo-4-(trifluoromethyl)-2,3-dihydropyridazin-1-ium trifluoroacetate] the CC50 was 50 to 500 nM. CCc1c(Cc2ccc(F)c(C(=O)N3CCN(C4CCCCC4)C(=O)C3)c2)n[nH]c(=O)c1C [Example 28, 3-{3-[(4-Cyclohexyl-3-oxopiperazin-1-yl)carbonyl]-4-fluorobenzyl}-4-ethyl-5-methyl-6-oxo-1,6-dihydropyridazin-1-ium trifluoroacetate] gave a CC50 of 50 to 500 nM. In the case of CCc1c(C)c(Cc2ccc(F)c(C(=O)N3CCN(C4CCCCC4)C(=O)C3)c2)n[nH]c1=O [Example 29, 3-{3-[(4-Cyclohexyl-3-oxopiperazin-1-yl)carbonyl]-4-fluorobenzyl}-5-ethyl-4-methyl-6-oxo-1,6-dihydropyridazin-1-ium trifluoroacetate], the CC50 was less than 50 nM. Work on CCc1cc(Cc2ccc(F)c(C(=O)N3CCN(C4CCCC4)C(=O)C3)c2)n[nH]c1=O [Example 30, 3-{3-[(4-Cyclopentyl-3-oxopiperazin-1-yl)carbonyl]-4-fluorobenzyl}-5-ethyl-6-oxo-1,6-dihydropyridazin-1-ium trifluoroacetate] yielded a CC50 of less than 50 nM. Cc1c(Cc2ccc(F)c(C(=O)N3CCN(c4cc(Cl)cc(Cl)c4)C(=O)C3)c2)n[nH]c(=O)c1C [Example 42, 3-(3-{[4-(3,5-Dichlorophenyl)-3-oxopiperazin-1-yl]carbonyl}-4-fluorobenzyl)-4,5-dimethyl-6-oxo-1,6-dihydropyridazin-1-ium trifluoroacetate] showed a CC50 of less than 50 nM. For Cc1c(Cc2ccc(F)c(C(=O)N3CCN(c4cccc5ccccc45)C(=O)C3)c2)n[nH]c(=O)c1C [Example 43, 3-(4-Fluoro-3-{[4-(1-naphthyl)-3-oxopiperazin-1-yl]carbonyl}benzyl)-4,5-dimethyl-6-oxo-1,6-dihydropyridazin-1-ium trifluoroacetate], the CC50 was less than 50 nM. In the case of Cc1c(Cc2ccc(F)c(C(=O)N3CCN(c4cccs4)C(=O)C3)c2)n[nH]c(=O)c1C [Example 44, 3-(4-Fluoro-3-{[3-oxo-4-(2-thienyl)piperazin-1-yl]carbonyl}benzyl)-4,5-dimethyl-6-oxo-1,6-dihydropyridazin-1-ium trifluoroacetate], the CC50 was less than 50 nM. Cc1c(Cc2ccc(F)c(C(=O)N3CCN(CC(C)C(F)(F)F)C(=O)C3)c2)n[nH]c(=O)c1C (stereo not drawn) [Example 45, 6-(4-Fluoro-3-{[3-oxo-4-(3,3,3-trifluoro-2-methylpropyl)piperazin-1-yl]carbonyl}benzyl)-4,5-dimethyl-3-oxo-2,3-dihydropyridazin-1-ium trifluoroacetate] showed a CC50 of less than 5000 nM. Molecule Cc1c(Cc2ccc(F)c(C(=O)N3CCN(C(c4ccccc4)C(F)F)C(=O)C3)c2)n[nH]c(=O)c1C (stereo not drawn) [Example 46, 6-(3-{[4-(2,2-Difluoro-1-phenylethyl)-3-oxopiperazin-1-yl]carbonyl}-4-fluorobenzyl)-4,5-dimethyl-3-oxo-2,3-dihydropyridazin-1-ium trifluoroacetate] has a CC50 of less than 50 nM. Molecule Cc1c(Cc2ccc(F)c(C(=O)N3CCN(C4CCCOC4)C(=O)C3)c2)n[nH]c(=O)c1C (stereo not drawn) [Example 47, 6-(4-Fluoro-3-{[3-oxo-4-(tetrahydro-2H-pyran-3-yl)piperazin-1-yl]carbonyl}benzyl)-4,5-dimethyl-3-oxo-2,3-dihydropyridazin-1-ium trifluoroacetate] has a CC50 of 50 to 500 nM. In the case of Cc1c(Cc2ccc(F)c(C(=O)N3CCN(c4csc5ccccc45)C(=O)C3)c2)n[nH]c(=O)c1C [Example 62, 3-(3-{[4-(1-Benzothien-3-yl)-3-oxopiperazin-1-yl]carbonyl}-4-fluorobenzyl)-4,5-dimethyl-6-oxo-1,6-dihydropyridazin-1-ium trifluoroacetate], the CC50 was 50 to 500 nM. Cc1c(Cc2ccc(F)c(C(=O)N3CCN(c4cncs4)C(=O)C3)c2)n[nH]c(=O)c1C [Example 63, 3-(4-Fluoro-3-{[3-oxo-4-(1,3-thiazol-5-yl)piperazin-1-yl]carbonyl}benzyl)-4,5-dimethyl-6-oxo-1,6-dihydropyridazin-1-ium trifluoroacetate] gave a CC50 of less than 50 nM. Cc1c(Cc2ccc(F)c(C(=O)N3CCN(c4cncnc4)C(=O)C3)c2)n[nH]c(=O)c1C [Example 64, 3-{4-Fluoro-3-[(3-oxo-4-pyrimidin-5-ylpiperazin-1-yl)carbonyl]benzyl}-4,5-dimethyl-6-oxo-1,6-dihydropyridazin-1-ium trifluoroacetate] showed a CC50 of less than 5000 nM. Work on Cc1c(Cc2ccc(F)c(C(=O)N3CCN(c4cncc(C(F)(F)F)c4)C(=O)C3)c2)n[nH]c(=O)c1C [Example 65, 3-[4-Fluoro-3-({3-oxo-4-[5-(trifluoromethyl)pyridin-3-yl]piperazin-1-yl}carbonyl)benzyl]-4,5-dimethyl-6-oxo-1,6-dihydropyridazin-1-ium trifluoroacetate] yielded a CC50 of 50 to 500 nM. Cc1c(Cc2ccc(F)c(C(=O)N3CCN(C4CCCC(c5ccccc5)C4)C(=O)C3)c2)n[nH]c(=O)c1C (stereo not drawn) [Example 66, 6-(4-Fluoro-3-{[3-oxo-4-(3-phenylcyclohexyl)piperazin-1-yl]carbonyl}benzyl)-4,5-dimethyl-3-oxo-2,3-dihydropyridazin-1-ium trifluoroacetate] was tested, and the CC50 was 50 to 500 nM. Cc1c(Cc2ccc(F)c(C(=O)N3CCN(C4CCC(c5ccccc5)CC4)C(=O)C3)c2)n[nH]c(=O)c1C (stereo not drawn) [Example 68, 6-(4-Fluoro-3-{[3-oxo-4-(4-phenylcyclohexyl)piperazin-1-yl]carbonyl}benzyl)-4,5-dimethyl-3-oxo-2,3-dihydropyridazin-1-ium trifluoroacetate] was tested, and the CC50 was less than 50 nM. Molecule Cc1c(Cc2ccc(F)c(C(=O)N3CCN(C4CCOC4)C(=O)C3)c2)n[nH]c(=O)c1C (stereo not drawn) [Example 69, 6-(4-Fluoro-3-{[3-oxo-4-(tetrahydrofuran-3-yl)piperazin-1-yl]carbonyl}benzyl)-4,5-dimethyl-3-oxo-2,3-dihydropyridazin-1-ium trifluoroacetate] has a CC50 of 50 to 500 nM. Cc1c(Cc2ccc(F)c(C(=O)N3CCN(C4CCc5ccccc5C4)C(=O)C3)c2)n[nH]c(=O)c1C (stereo not drawn) [Example 70, 6-(4-Fluoro-3-{[3-oxo-4-(1,2,3,4-tetrahydronaphthalen-2-yl)piperazin-1-yl]carbonyl}benzyl)-4,5-dimethyl-3-oxo-2,3-dihydropyridazin-1-ium trifluoroacetate] gave a CC50 of less than 50 nM. Cc1c(Cc2ccc(F)c(C(=O)N3CCN(C4Cc5ccccc5C4)C(=O)C3)c2)n[nH]c(=O)c1C [Example 71, 6-(3-{[4-(2,3-Dihydro-1H-inden-2-yl)-3-oxopiperazin-1-yl]carbonyl}-4-fluorobenzyl)-4,5-dimethyl-3-oxo-2,3-dihydropyridazin-1-ium trifluoroacetate] was tested, and the CC50 was 50 to 500 nM. Work on Cc1c(Cc2cc(C(=O)N3CCN(C4CCCC4)C(=O)C3)c(F)cc2Br)n[nH]c(=O)c1C [Example 83, 6-{2-Bromo-5-[(4-cyclopentyl-3-oxopiperazin-1-yl)carbonyl]-4-fluorobenzyl}-4,5-dimethylpyridazin-3(2H)-one] yielded a CC50 of less than 50 nM.
